For 13 molecules, TGI and GI50 results are on record in PubChem BioAssay (NCI).

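The compound was tested at five concentrations on cells cultured in 96-well plates, with a 48-hour exposure period. Here, GI50 denotes the concentration required for 50% inhibition of growth. TGI denotes the concentration required for complete inhibition of growth.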 Where a SMILES comes first, the peptide text is derived from it. The star is where a group is joined. Boc = CC(C)(C)OC(=O)*; OBn = c1ccc(CO*)cc1; Bn = c1ccc(C*)cc1 Some results are limits rather than exact numbers.

Some test systems named below: SN12C renal; DU-145 prostate; 786-0 renal; MDA-MB-435; CAKI-1 renal; IGROV1 ovarian; SK-MEL-2 melanoma; HL-60(TB) leukemia; A549 NSCLC; OVCAR-8 ovarian; PC-3 prostate.
Experiment in all cases: NCI tumour cell line growth inhibition, 48 h

On to `COc1c2c(cc3oc(=O)ccc13)OC(C)(C)C=C2`, for which the TGI is 100 µM in the assay on SN12C renal; 55.9 µM with DU-145 prostate; 63.8 µM in the assay with 786-0 renal; 68.7 µM in the assay on MDA-MB-435; 29 µM in the assay with CAKI-1 renal; 75.7 µM in the assay with IGROV1 ovarian. Further, the TGI is 51.1 µM in the assay with SK-MEL-2 melanoma, 45.2 µM in the assay on HL-60(TB) leukemia, more than 125 µM in the assay on A549 NSCLC and 75.1 µM with OVCAR-8 ovarian.
As for `C=CCCCN1C(=O)C2C3c4ccccc4C(C=O)(c4ccccc43)C2C1=O` (stereo not drawn), the TGI was determined as 22.2 µM in the assay on SN12C renal; 26.1 µM with DU-145 prostate; 26.6 µM in the assay on 786-0 renal; 50.9 µM in the assay with CAKI-1 renal; 65.1 µM in the assay on IGROV1 ovarian; 59.5 µM with SK-MEL-2 melanoma. Moreover, the TGI in the assay with HL-60(TB) leukemia was 34.5 µM; in the assay with A549 NSCLC it was 35.9 µM; with OVCAR-8 ovarian, 26.5 µM; in the assay with PC-3 prostate, 26.3 µM.
For `N.N.NCCCCN.O=C([O-])CCl.O=C([O-])CCl.O=C([O-])CCl.O=C([O-])CCl.[Pt+4].[Pt+4]`, in the assay with SN12C renal, the GI50 was 9.99 µM. Also, the TGI in the assay on SN12C renal is 49.8 µM; in the assay on 786-0 renal, more than 50 µM; in the assay on IGROV1 ovarian, more than 50 µM; in the assay with SK-MEL-2 melanoma it was more than 50 µM; with HL-60(TB) leukemia, more than 50 µM; in the assay on A549 NSCLC it was more than 50 µM. The same molecule showed a TGI with OVCAR-8 ovarian of more than 50 µM.
Take `O=C1CCCn2c3ccccc3c3ccnc1c32`: the TGI was more than 100 µM with SN12C renal; more than 46.6 µM in the assay on CAKI-1 renal; more than 100 µM in the assay with IGROV1 ovarian; more than 100 µM with SK-MEL-2 melanoma; 23 µM in the assay on HL-60(TB) leukemia; more than 100 µM in the assay with A549 NSCLC. In addition, in the assay on OVCAR-8 ovarian, the TGI was more than 100 µM.
In the case of `c1ccc(C[P+]2(c3ccccc3)CCCCC2)cc1`, the TGI in the assay with SN12C renal, in the assay on 786-0 renal, with IGROV1 ovarian, in the assay with SK-MEL-2 melanoma, with HL-60(TB) leukemia and with A549 NSCLC was more than 100 µM each time. In addition, the TGI in the assay with OVCAR-8 ovarian is more than 100 µM.
Take `CC1(C)OC2C(CO)OC(/N=C(\NC#N)Oc3ccccc3)C2O1` (stereo not drawn): the TGI in the assay with SN12C renal, with IGROV1 ovarian, with HL-60(TB) leukemia, with A549 NSCLC and with OVCAR-8 ovarian was more than 100 µM in each case.
`CC(C)CC(NC(=O)C(CCC(=O)OCc1ccccc1)NC(=O)OC(C)(C)C)C(=O)NC(COCc1ccccc1)C(=O)NC(Cc1ccccc1)C(=O)O` (stereo not drawn) (Boc-E(OBn)LS(Bn)F-OH; configuration not given here): the TGI in the assay with SN12C renal, in the assay with 786-0 renal, in the assay on IGROV1 ovarian, in the assay on SK-MEL-2 melanoma, with HL-60(TB) leukemia and with A549 NSCLC was more than 100 µM each time. The TGI in the assay with OVCAR-8 ovarian and with PC-3 prostate was more than 100 µM throughout.
Regarding `O=C1CCCc2ccc3c(c21)CC1(Cc2cc4c(cc2C1)CCCC4)C3`, the TGI is 54.2 µM in the assay on SN12C renal; more than 100 µM with DU-145 prostate; 33 µM in the assay on 786-0 renal; 46.7 µM in the assay on MDA-MB-435; 54.6 µM with IGROV1 ovarian; 48.9 µM in the assay with SK-MEL-2 melanoma. For the same molecule, the TGI was 26.3 µM with HL-60(TB) leukemia, more than 100 µM in the assay with A549 NSCLC and 47.4 µM in the assay on OVCAR-8 ovarian.
On to `COc1cc(C(C)(C)C)c(OC(=O)/C=C/C(=O)O/C=C/[N+](=O)[O-])c(C(C)(C)C)c1`, for which the TGI in the assay with SN12C renal was more than 100 µM; in the assay with DU-145 prostate it was more than 100 µM; with 786-0 renal, more than 100 µM; in the assay on MDA-MB-435, 58.1 µM; in the assay with CAKI-1 renal, 57.5 µM; in the assay on IGROV1 ovarian it was more than 100 µM. For the same molecule, the TGI in the assay with HL-60(TB) leukemia was 4.29 µM; with A549 NSCLC, 55 µM; in the assay on OVCAR-8 ovarian it was more than 100 µM.
`CCCCC(=O)Nc1ccc2cc(C(=O)OC)c(=O)[nH]c2n1`: the TGI in the assay with SN12C renal, in the assay with 786-0 renal, with MDA-MB-435, in the assay with CAKI-1 renal, with IGROV1 ovarian and in the assay with SK-MEL-2 melanoma was more than 100 µM each time. Besides, the TGI in the assay with A549 NSCLC, with OVCAR-8 ovarian and with PC-3 prostate was more than 100 µM in each case.
Consider `CC12CCC3=C(CSC4=C3CSc3ccccc34)C1=CCCC2=O` (stereo not drawn), for which the TGI in the assay with SN12C renal, in the assay on CAKI-1 renal, with SK-MEL-2 melanoma, in the assay with HL-60(TB) leukemia, in the assay with A549 NSCLC and in the assay with OVCAR-8 ovarian was more than 100 µM each time.
On to `COc1ccc(/C=N/N=C(N)N)c(C(=O)O)c1OC`, for which the TGI is more than 100 µM with SN12C renal; more than 100 µM with CAKI-1 renal; more than 10 µM in the assay with IGROV1 ovarian; more than 100 µM with HL-60(TB) leukemia; more than 100 µM in the assay on A549 NSCLC; more than 100 µM in the assay with OVCAR-8 ovarian.
For the molecule `O=C(CSCC(=O)N/N=C/c1ccc(F)cc1)N/N=C/c1ccc(F)cc1`, the TGI in the assay on SN12C renal, in the assay with DU-145 prostate, with 786-0 renal, in the assay with IGROV1 ovarian, with SK-MEL-2 melanoma and in the assay with HL-60(TB) leukemia was more than 100 µM each time. The TGI in the assay with A549 NSCLC, with OVCAR-8 ovarian and in the assay with PC-3 prostate was more than 100 µM throughout.
